One assay relates to SARS-CoV-2 strain USA-WA1/2020. The assay can be described thus: microbe, parasite or virus in culture. Type of assay: cell-based. The following applies: Severe acute respiratory syndrome coronavirus 2, HeLa-ACE2, 24 h, HeLa-ACE2 cells, SARS-CoV-2 infection, 24 h; bound printed in cell; read-out: EC50, uM (Hela).
Turning to `CC[C@](C)(O)C(=O)N1C[C@H]2[C@@H]([C@H]1C(=O)N[C@@H](C[C@@H]1CCNC1=O)C(=O)COC(F)(F)F)C2(C)C` [Compound 367, (1R,2S,5S)-3-((S)-2-hydroxy-2-methylbutanoyl)-6,6-dimethyl-N-((S)-3-oxo-1-((S)-2-oxopyrrolidin-3-yl)-4-(trifluoromethoxy)butan-2-yl)-3-azabicyclo[3.1.0]-hexane-2-carboxamide], the EC50 was above 1 µM.

Regarding `CC[C@@H](O)C(=O)N[C@@H](CC1(C)CC1)C(=O)N[C@@H](C[C@@H]1CCNC1=O)C(=O)COC(F)(F)F` [Compound 376, (R)-2-hydroxy-N-((S)-3-(1-methylcyclopropyl)-1-oxo-1-(((S)-3-oxo-l-((S)-2-oxopyrrolidin-3-yl)-4-(trifluoromethoxy)butan-2-yl)amino)propan-2-yl)butanamide], the EC50 is above 1 µM.

The same assay, now with this note: Severe acute respiratory syndrome coronavirus 2, HeLa-ACE2, 24 h, HeLa-ACE2 cells, SARS-CoV-2 infection, 24 h; class symbols; read-out: EC50, uM (Hela).
As to `CC(C)C[C@H](NC(=O)[C@H](O)C(C)C)C(=O)N[C@@H](C[C@@H]1CCNC1=O)C(=O)COC(F)(F)F` [Compound 355, (S)-2-((R)-2-hydroxy-3-methylbutanamido)-4-methyl-N-((S)-3-oxo-1-((S)-2-oxopyrrolidin-3-yl)-4-(trifluoromethoxy)butan-2-yl)pentanamide], the EC50 lay within 0.05 to 0.2 µM.

For `CC(C)[C@@H](O)C(=O)N1CC2(CC2)C[C@H]1C(=O)N[C@@H](C[C@@H]1CCNC1=O)C(=O)COC(F)(F)F` [Compound 356, (S)-5-((R)-2-hydroxy-3-methylbutanoyl)-N-((S)-3-oxo-1-((S)-2-oxopyrrolidin-3-yl)-4-(trifluoromethoxy)butan-2-yl)-5-azaspiro[2.4]heptane-6-carboxamide], the 50% effective concentration (EC50) is 0.05 to 0.2 µM.

For the compound `CC(C)[C@@H](O)C(=O)N1C[C@H]2[C@@H]([C@H]1C(=O)N[C@@H](C[C@@H]1CCNC1=O)C(=O)COC(F)(F)F)C2(C)C` [Compound 357, (1R,2S,5S)-3-((R)-2-hydroxy-3-methylbutanoyl)-6,6-dimethyl-N-((S)-3-oxo-1-((S)-2-oxopyrrolidin-3-yl)-4-(trifluoromethoxy)butan-2-yl)-3-azabicyclo-[3.1.0]hexane-2-carboxamide], the EC50 lay in the range of 0.05 to 0.2 µM.

On to `CC(C)[C@H](O)C(=O)N1CC2(CC2)C[C@H]1C(=O)N[C@@H](C[C@@H]1CCNC1=O)C(=O)COC(F)(F)F` [Compound 358, (S)-5-((S)-2-hydroxy-3-methylbutanoyl)-N-((S)-3-oxo-1-((S)-2-oxopyrrolidin-3-yl)-4-(trifluoromethoxy)butan-2-yl)-5-azaspiro-[2.4]heptane-6-carboxamide], for which the concentration for a half-maximal effect (EC50) fell in the range of 0.05 to 0.2 µM.

As to `CC(C)[C@@H](O)C(=O)N1C[C@@H]2CCC[C@@H]2[C@H]1C(=O)N[C@@H](C[C@@H]1CCNC1=O)C(=O)COC(F)(F)F` [Compound 359, (1S,3aR,6aS)-2-((R)-2-hydroxy-3-methylbutanoyl)-N-((S)-3-oxo-1-((S)-2-oxopyrrolidin-3-yl)-4-(trifluoromethoxy)butan-2-yl)octahydrocyclo-penta[c]pyrrole-1-carboxamide], the EC50 was in the range of 0.05 to 0.2 µM.

With `CC(C)CC(C)(O)C(=O)N1CC2(CC2)C[C@H]1C(=O)N[C@@H](C[C@@H]1CCNC1=O)C(=O)COC(F)(F)F` (stereo partly drawn) [Compound 360, (6S)-5-(2-hydroxy-2,4-dimethylpentanoyl)-N-((S)-3-oxo-1-((S)-2-oxopyrrolidin-3-yl)-4-(trifluoromethoxy)butan-2-yl)-5-azaspiro[2.4]-heptane-6-carboxamide], the concentration for a half-maximal effect (EC50) was below 0.05 µM.

On to `CC(C)C[C@@H](O)C(=O)N1C[C@H]2[C@@H]([C@H]1C(=O)N[C@@H](C[C@@H]1CCNC1=O)C(=O)COC(F)(F)F)C2(C)C` [Compound 361, (1R,2S,5S)-3-((R)-2-hydroxy-4-methylpentanoyl)-6,6-dimethyl-N-((S)-3-oxo-1-((S)-2-oxopyrrolidin-3-yl)-4-(trifluoromethoxy)butan-2-yl)-3-azabicyclo-[3.1.0]hexane-2-carboxamide], for which the EC50 is below 0.05 µM.

Regarding `CC(C)C[C@@H](O)C(=O)N1C[C@@H]2CCC[C@@H]2[C@H]1C(=O)N[C@@H](C[C@@H]1CCNC1=O)C(=O)COC(F)(F)F` [Compound 363, (1S,3aR,6aS)-2-((R)-2-hydroxy-4-methylpentanoyl)-N-((S)-3-oxo-1-((S)-2-oxopyrrolidin-3-yl)-4-(trifluoromethoxy)butan-2-yl)octahydrocyclo-penta[c]pyrrole-1-carboxamide], the concentration for a half-maximal effect (EC50) is below 0.05 µM.

For `C[C@@](O)(C(=O)N1CC2(CC2)C[C@H]1C(=O)N[C@@H](C[C@@H]1CCNC1=O)C(=O)COC(F)(F)F)c1ccccc1` [Compound 364, (S)-5-((S)-2-hydroxy-2-phenylpropanoyl)-N-((S)-3-oxo-1-((S)-2-oxopyrrolidin-3-yl)-4-(trifluoromethoxy)butan-2-yl)-5-azaspiro[2.4]-heptane-6-carboxamide], the EC50 was below 0.05 µM.

As to `C[C@](O)(C(=O)N1CC2(CC2)C[C@H]1C(=O)N[C@@H](C[C@@H]1CCNC1=O)C(=O)COC(F)(F)F)c1ccccc1` [Compound 365, (S)-5-((R)-2-hydroxy-2-phenylpropanoyl)-N-((S)-3-oxo-1-((S)-2-oxopyrrolidin-3-yl)-4-(trifluoromethoxy)butan-2-yl)-5-azaspiro[2.4]-heptane-6-carboxamide], the concentration giving a half-maximal response (EC50) was below 0.05 µM.

`CC[C@@H](O)C(=O)N1C[C@H]2[C@@H]([C@H]1C(=O)N[C@@H](C[C@@H]1CCNC1=O)C(=O)COC(F)(F)F)C2(C)C` [Compound 368, (1R,2S,5S)-3-((R)-2-hydroxybutanoyl)-6,6-dimethyl-N-((S)-3-oxo-1-((S)-2-oxopyrrolidin-3-yl)-4-(trifluoromethoxy)butan-2-yl)-3-azabicyclo[3.1.0]= hexane-2-carboxamide]: the EC50 was 0.05 to 0.2 µM.

For `CC[C@@H](O)C(=O)N[C@@H](CC(C)C)C(=O)N[C@@H](C[C@@H]1CCNC1=O)C(=O)COC(F)(F)F` [Compound 369, (S)-2-((R)-2-hydroxybutanamido)-4-methyl-N-((S)-3-oxo-1-((S)-2-oxopyrrolidin-3-yl)-4-(trifluoromethoxy)butan-2-yl)pentanamide], the EC50 lay within 0.05 to 0.2 µM.

On to `CC[C@H](O)C(=O)N1C[C@H]2[C@@H]([C@H]1C(=O)N[C@@H](C[C@@H]1CCNC1=O)C(=O)COC(F)(F)F)C2(C)C` [Compound 370, (1R,2S,5S)-3-((S)-2-hydroxybutanoyl)-6,6-dimethyl-N-((S)-3-oxo-1-((S)-2-oxopyrrolidin-3-yl)-4-(trifluoromethoxy)butan-2-yl)-3-azabicyclo[3.1.0]-hexane-2-carboxamide], for which the EC50 lay in the range of 0.05 to 0.2 µM.

Regarding `CC[C@@H](O)C(=O)N1CC2(CC2)C[C@H]1C(=O)N[C@@H](C[C@@H]1CCNC1=O)C(=O)COC(F)(F)F` [Compound 371, (S)-5-((R)-2-hydroxybutanoyl)-N-((S)-3-oxo-1-((S)-2-oxopyrrolidin-3-yl)-4-(trifluoromethoxy)butan-2-yl)-5-azaspiro[2.4]heptane-6-carboxamide], the concentration giving a half-maximal response (EC50) lay in the range of 0.05 to 0.2 µM.

In the case of `CC[C@@H](O)C(=O)NC(CC1(C)CC1)C(=O)N[C@@H](C[C@@H]1CCNC1=O)C(=O)COC(F)(F)F` (stereo partly drawn) [Compound 372, (2R)-2-hydroxy-N-(3-(1-methylcyclopropyl)-1-oxo-1-(((S)-3-oxo-l-((S)-2-oxopyrrolidin-3-yl)-4-(trifluoromethoxy)butan-2-yl)amino)propan-2-yl)butanamide], the concentration for a half-maximal effect (EC50) was in the range of 0.2 to 0.5 µM.

Consider `CC[C@@H](O)C(=O)N1[C@H](C(=O)N[C@@H](C[C@@H]2CCNC2=O)C(=O)COC(F)(F)F)C[C@@H]2CCCC[C@@H]21` [Compound 373, (2S,3aS,7aS)-1-((R)-2-hydroxybutanoyl)-N-((S)-3-oxo-1-((S)-2-oxopyrrolidin-3-yl)-4-(trifluoro-methoxy)butan-2-yl)octahydro-1H-indole-2-carboxamide], for which the EC50 lay within 0.2 to 0.5 µM.

With `CC[C@@H](O)C(=O)N1[C@H](C(=O)N[C@@H](C[C@@H]2CCNC2=O)C(=O)COC(F)(F)F)C[C@@H]2CCC[C@@H]21` [Compound 374, (2S,3aS,6aS)-1-((R)-2-hydroxybutanoyl)-N-((S)-3-oxo-1-((S)-2-oxopyrrolidin-3-yl)-4-(trifluoromethoxy)butan-2-yl)octahydrocyclo-penta[b]pyrrole-2-carboxamide], the EC50 lay in the range of 0.5 to 1 µM.

As for `CC[C@@H](O)C(=O)N[C@H](CC1(C)CC1)C(=O)N[C@@H](C[C@@H]1CCNC1=O)C(=O)COC(F)(F)F` [Compound 375, (R)-2-hydroxy-N-((R)-3-(l-methylcyclopropyl)-1-oxo-1-(((S)-3-oxo-l-((S)-2-oxopyrrolidin-3-yl)-4-(trifluoromethoxy)butan-2-yl)amino)propan-2-yl)butanamide], the 50% effective concentration (EC50) fell in the range of 0.05 to 0.2 µM.

On to `CC[C@@H](O)C(=O)N1C[C@@H]2CCC[C@@H]2[C@H]1C(=O)N[C@@H](C[C@@H]1CCNC1=O)C(=O)COC(F)(F)F` [Compound 377, (1S,3aR,6aS)-2-((R)-2-hydroxybutanoyl)-N-((S)-3-oxo-1-((S)-2-oxopyrrolidin-3-yl)-4-(trifluoromethoxy)butan-2-yl)octahydrocyclo-penta[c]pyrrole-1-carboxamide], for which the EC50 was in the range of 0.05 to 0.2 µM.

Turning to `CCC[C@@H](O)C(=O)N1C[C@H]2[C@@H]([C@H]1C(=O)N[C@@H](C[C@@H]1CCNC1=O)C(=O)COC(F)(F)F)C2(C)C` [Compound 378, (1R,2S,5S)-3-((R)-2-hydroxypentanoyl)-6,6-dimethyl-N-((S)-3-oxo-1-((S)-2-oxopyrrolidin-3-yl)-4-(trifluoromethoxy)butan-2-yl)-3-azabicyclo[3.1.0]-hexane-2-carboxamide], the EC50 was below 0.05 µM.

On to `CC[C@@H](C)[C@@H](O)C(=O)N1C[C@@H]2CCC[C@@H]2[C@H]1C(=O)N[C@@H](C[C@@H]1CCNC1=O)C(=O)COC(F)(F)F` [Compound 379, (1S,3aR,6aS)-2-((2R,3R)-2-hydroxy-3-methylpentanoyl)-N-((S)-3-oxo-1-((S)-2-oxopyrrolidin-3-yl)-4-(trifluoromethoxy)butan-2-yl)octahydrocyclo-penta[c]pyrrole-1-carboxamide], for which the concentration for a half-maximal effect (EC50) is below 0.05 µM.

The values above are taken from US11708348B2, “Protease inhibitors for treatment of coronavirus infections” (The Scripps Research Institute, priority 2021, dated 2023).
